Consider 15 compounds from patent US10077261B2, “Imidazolin-5-one derivative useful as FASN inhibitors for the treatment of cancer” (Janssen Pharmaceutica NV, priority 2012, dated 2018).

Where only a bound is given, the exact number is not on record here.

Assay [1] addresses T1, hFASN enzyme (full length) (Homo sapiens, UniProt P49327).
T1 construct: 10 μL hFASN enzyme (full length, 300 ng, purified in house); made in house
Description: Fatty Acid Synthase (FASN) inhibition scintillation proximity assay. As to conditions: for inhibition at 10 µM: read-out: Human FASN % inhibition @ 10 μM, 10 μM test compound; for IC50: read-out: Human FASN pIC50 (converted). The format is biochemical. In a few lines: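 Purified full-length hFASN (300 ng) converts ^3H-acetyl-CoA plus malonyl-CoA to ^3H-palmitate in 100 mM KH2PO4 pH 7.5, 1 mM DTT; compounds tested at 0.01–30 μM. Product captured on streptavidin imaging beads and read by LEADseeker at 610 nm after ≥24 h; 4-parameter logistic fit versus controls.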
On the technique in general: SPA uses beads or plates that emit light when radiolabelled molecules are held near them.

The subject of assay [2] is A2780 ovarian cells. Description: A2780 ovarian cell proliferation assay in lipid reduced medium, with palmitate (MTT). Particulars: Homo sapiens, A2780, 96 h; read-out: pIC50 A2780 Ovarian Cell, With Palmitate (converted). The format is cell-based. An outline of the steps:
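Seeded cells were switched next day to lipid-reduced serum, exposed to compound and 25 μM palmitate complexed with fatty-acid-free BSA, and incubated 96 h. Proliferation was then determined by MTT absorbance at 544 nm, with a best-fit curve of signal against concentration.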

For assay [3], the system named is A2780 ovarian cells. Description: A2780 ovarian cell proliferation assay in lipid reduced medium, without palmitate (MTT). It is filed as cell-based. Particulars: Homo sapiens, A2780, 96 h; read-out: pIC50 A2780 Ovarian Cell, Without Palmitate (converted).
Assay [4] has as its system LNCaP-Vancouver prostate cells. Description: In vitro LNCaP Vancouver prostate cell proliferation assay in lipid reduced medium. Particulars: read-out: pIC50 LNCaP_Vancouver prostate cell (converted). The format is cell-based.
The subject of assay [5] is PC-3M-Luc-C6 prostate cells. Nature of the assay: In vitro PC-3M-Luc-C6 prostate cell proliferation assay in lipid reduced medium. The format is cell-based. As to conditions: 96 h, read-out: pIC50 PC-3M-Luc-C6 prostate cell (converted).
In assay [6] the target is Fatty Acid Synthase Keto-reductase Domain (FASN KR) (Homo sapiens, UniProt P49327). Nature of the assay: Fatty Acid Synthase keto-reductase domain (FASN KR) inhibition, NADPH oxidation at 340 nm.
Sequence of Fatty Acid Synthase Keto-reductase Domain (FASN KR) (P49327 whole entry, the tested form may be a part): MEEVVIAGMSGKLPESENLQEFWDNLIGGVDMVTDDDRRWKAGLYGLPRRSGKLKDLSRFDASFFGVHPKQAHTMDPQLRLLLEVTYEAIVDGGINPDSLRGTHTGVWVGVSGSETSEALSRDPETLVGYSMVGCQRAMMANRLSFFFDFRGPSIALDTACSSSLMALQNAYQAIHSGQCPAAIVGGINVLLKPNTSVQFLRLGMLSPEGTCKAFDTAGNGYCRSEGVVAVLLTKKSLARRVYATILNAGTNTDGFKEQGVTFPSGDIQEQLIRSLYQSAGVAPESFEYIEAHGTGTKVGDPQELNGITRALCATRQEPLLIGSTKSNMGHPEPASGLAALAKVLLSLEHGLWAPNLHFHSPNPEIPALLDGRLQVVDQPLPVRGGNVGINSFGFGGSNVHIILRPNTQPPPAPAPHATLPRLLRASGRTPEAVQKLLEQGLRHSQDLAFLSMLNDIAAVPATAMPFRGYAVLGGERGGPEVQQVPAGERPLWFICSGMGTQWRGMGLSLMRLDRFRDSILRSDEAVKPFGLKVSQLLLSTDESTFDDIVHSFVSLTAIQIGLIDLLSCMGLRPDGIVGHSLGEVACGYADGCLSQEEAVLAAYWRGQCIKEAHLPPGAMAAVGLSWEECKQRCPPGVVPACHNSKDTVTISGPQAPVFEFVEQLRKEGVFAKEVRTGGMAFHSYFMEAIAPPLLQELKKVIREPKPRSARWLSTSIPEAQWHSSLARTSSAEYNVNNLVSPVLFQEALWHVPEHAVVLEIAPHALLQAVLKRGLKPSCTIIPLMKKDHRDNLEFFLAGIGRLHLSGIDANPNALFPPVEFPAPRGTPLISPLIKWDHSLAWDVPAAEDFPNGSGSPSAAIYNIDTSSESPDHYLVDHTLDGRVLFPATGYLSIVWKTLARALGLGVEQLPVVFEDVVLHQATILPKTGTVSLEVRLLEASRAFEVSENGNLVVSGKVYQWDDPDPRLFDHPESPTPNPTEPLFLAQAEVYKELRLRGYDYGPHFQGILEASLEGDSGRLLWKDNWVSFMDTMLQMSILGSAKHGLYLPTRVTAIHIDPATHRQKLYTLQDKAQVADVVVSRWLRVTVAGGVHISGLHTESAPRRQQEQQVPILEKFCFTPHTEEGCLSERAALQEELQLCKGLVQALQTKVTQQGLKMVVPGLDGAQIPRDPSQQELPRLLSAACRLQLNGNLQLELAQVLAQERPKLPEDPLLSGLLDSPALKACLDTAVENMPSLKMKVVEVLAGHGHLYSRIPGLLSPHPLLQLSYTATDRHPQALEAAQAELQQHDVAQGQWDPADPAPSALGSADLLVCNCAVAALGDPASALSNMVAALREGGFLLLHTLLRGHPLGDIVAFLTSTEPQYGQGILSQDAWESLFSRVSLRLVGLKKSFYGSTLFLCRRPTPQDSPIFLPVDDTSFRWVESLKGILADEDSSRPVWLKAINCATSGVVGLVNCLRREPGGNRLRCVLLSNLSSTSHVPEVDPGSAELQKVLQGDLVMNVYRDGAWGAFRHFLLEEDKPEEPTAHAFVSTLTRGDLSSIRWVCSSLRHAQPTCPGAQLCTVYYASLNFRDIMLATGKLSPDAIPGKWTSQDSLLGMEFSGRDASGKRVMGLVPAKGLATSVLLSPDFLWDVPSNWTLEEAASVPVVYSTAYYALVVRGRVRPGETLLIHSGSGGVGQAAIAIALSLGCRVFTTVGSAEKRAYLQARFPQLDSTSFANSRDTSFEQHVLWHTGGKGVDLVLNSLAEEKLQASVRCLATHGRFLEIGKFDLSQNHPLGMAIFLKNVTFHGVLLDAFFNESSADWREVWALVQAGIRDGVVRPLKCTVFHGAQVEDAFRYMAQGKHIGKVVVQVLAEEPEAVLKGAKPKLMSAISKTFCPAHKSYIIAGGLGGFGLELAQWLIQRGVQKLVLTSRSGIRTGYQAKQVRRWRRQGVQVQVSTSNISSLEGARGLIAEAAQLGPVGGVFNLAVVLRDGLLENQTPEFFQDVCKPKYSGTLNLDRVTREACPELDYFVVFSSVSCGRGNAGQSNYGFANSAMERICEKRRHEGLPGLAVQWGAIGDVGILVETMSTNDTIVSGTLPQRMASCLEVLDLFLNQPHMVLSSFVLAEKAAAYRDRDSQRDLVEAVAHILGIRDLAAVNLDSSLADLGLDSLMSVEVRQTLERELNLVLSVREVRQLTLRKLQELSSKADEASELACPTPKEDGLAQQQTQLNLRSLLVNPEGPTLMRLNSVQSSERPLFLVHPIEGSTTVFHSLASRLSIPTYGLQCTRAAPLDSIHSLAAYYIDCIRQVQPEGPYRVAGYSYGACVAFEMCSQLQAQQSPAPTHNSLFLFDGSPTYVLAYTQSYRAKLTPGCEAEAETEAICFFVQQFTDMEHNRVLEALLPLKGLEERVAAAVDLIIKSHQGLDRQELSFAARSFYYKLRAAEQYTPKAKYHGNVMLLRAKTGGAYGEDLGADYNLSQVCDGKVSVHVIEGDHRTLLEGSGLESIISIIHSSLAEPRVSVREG
Description: After 20 minutes incubation at room temperature the plate was measured again (T2).
The decrease in absorbance was calculated as (Absorbance before incubation T1)−(Absorbance following incubation T2).
A plot of Controlmin versus test compound concentration was fitted to a 4-parameter logistic curve using a non-linear least squares regression method.

T1 sequence (P49327 whole entry): as the sequence (P49327 whole entry, the tested form may be a part) above

On to `CCn1ncc2cc(-c3ccc(C4=NC5(CC5)C(=O)N4CC4CN(C(=O)C5CC5)C4)c(F)c3)ccc21` [compound 521, 6-{[1-(Cyclopropylcarbonyl)azetidin-3-yl]methyl}-5-[4-(1-ethyl-1H-indazol-5-yl)-2-fluorophenyl]-4,6-diazaspiro[2.4]hept-4-en-7-one], for which the inhibition at 10 µM in assay [1] worked out at 94%. Besides, the IC50 was 513 nM in assay [1]; > 10000 nM with A2780 ovarian cells [2]; ~339 nM in the assay with A2780 ovarian cells [3]; 1910 nM in assay [4]; 603 nM in assay [5]; 676 nM in assay [6].

As for `O=C(C1CC1)N1CC(CN2C(=O)C3(CC3)N=C2c2ccc(-c3ccc4c(cnn4CC4CC4)c3)cc2F)C1` [compound 523, 6-{[1-(Cyclopropylcarbonyl)azetidin-3-yl]methyl}-5-{4-[1-(cyclopropylmethyl)-1H-indazol-5-yl]-2-fluorophenyl}-4,6-diazaspiro[2.4]hept-4-en-7-one], in assay [1], the inhibition at 10 µM is 92%. The IC50 in assay [1] was 513 nM; in the assay on A2780 ovarian cells [2], > 10000 nM; in the assay with A2780 ovarian cells [3], 676 nM; in assay [4], 3240 nM; in assay [5], 1170 nM; in assay [6], 1480 nM.

On to `O=C(C1CC1)N1CC(CN2C(=O)C3(CC3)N=C2c2ccc(-c3ccc(-n4ccnc4)nc3)cc2F)C1` [compound 526, 6-{[1-(Cyclopropylcarbonyl)azetidin-3-yl]methyl}-5-{2-fluoro-4-[6-(1H-imidazol-1-yl)pyridin-3-yl]phenyl}-4,6-diazaspiro[2.4]hept-4-en-7-one], for which, in assay [1], the inhibition at 10 µM was 93%. Further, the IC50 in assay [1] was 912 nM; in the assay with A2780 ovarian cells [2] it was > 10000 nM; in the assay on A2780 ovarian cells [3], ~1020 nM; in assay [4] it was 5890 nM; in assay [5], 1480 nM; in assay [6] it was 2190 nM.

In the case of `O=C(C1CC1)N1CC[C@@H](CN2C(=O)C3(CC3)N=C2c2ccc(-c3n[nH]c4ccccc34)cc2F)C1` [compound 529, 6-{[(3R)-1-(Cyclopropylcarbonyl)pyrrolidin-3-yl]methyl}-5-[2-fluoro-4-(1H-indazol-3-yl)phenyl]-4,6-diazaspiro[2.4]hept-4-en-7-one], the inhibition at 10 µM in assay [1] is 96%. Besides, the IC50 in assay [1] is 102 nM; in the assay with A2780 ovarian cells [2] it was > 10000 nM; in the assay on A2780 ovarian cells [3] it was ~83.2 nM; in assay [4], 724 nM; in assay [5], ~83.2 nM; in assay [6], 155 nM.

`O=C(C1CC1)N1CC(CN2C(=O)C3(CC3)N=C2c2ccc(-c3cc4ccccc4cn3)cc2)C1` [compound 531, 6-{[1-(Cyclopropylcarbonyl)azetidin-3-yl]methyl}-5-(4-isoquinolin-3-ylphenyl)-4,6-diazaspiro[2.4]hept-4-en-7-one]: the inhibition at 10 µM in assay [1] stood at 96%. The IC50 was 170 nM in assay [1]; > 10000 nM with A2780 ovarian cells [2]; 148 nM in the assay with A2780 ovarian cells [3]; 1350 nM in assay [4]; 302 nM in assay [5]; 537 nM in assay [6].

With `Cn1cc(-c2ccc(-c3ccc(C4=NC5(CC5)C(=O)N4CC4CN(C(=O)C5CC5)C4)cc3)nc2)cn1` [compound 534, 6-{[1-(Cycloprropylcarbonyl)azetidin-3-yl]methyl}-5-{4-[5-(1-methyl-1H-pyrazol-4-yl)pyridin-2-yl]phenyl}-4,6-diazaspiro[2.4]hept-4-en-7-one], the inhibition at 10 µM in assay [1] worked out at 95%. For the same compound, the IC50 in assay [1] was 162 nM; in the assay with A2780 ovarian cells [2] it was > 10000 nM; with A2780 ovarian cells [3] it was 776 nM; in assay [4], ~5620 nM; in assay [5], 1000 nM; in assay [6], 1380 nM.

Consider `O=C(C1CC1)N1CC(CN2C(=O)C3(CC3)N=C2c2ccc(-c3ccc4nn(CCO)cc4c3)cc2F)C1` [compound 536, 6-{[1-(Cyclopropylcarbonyl)azetidin-3-yl]methyl}-5-{2-fluoro-4-[2-(2-hydroxyethyl)-2H-indazol-5-yl]phenyl}-4,6-diazaspiro[2.4]hept-4-en-7-one], for which, in assay [1], the inhibition at 10 µM was determined as 88%. For the same compound, the IC50 was 1230 nM in assay [1]; > 10000 nM in the assay with A2780 ovarian cells [2]; 955 nM in the assay with A2780 ovarian cells [3]; ~7590 nM in assay [4]; ~3090 nM in assay [5]; 3550 nM in assay [6].

As for `O=C(C1CC1)N1CC(CN2C(=O)C3(CC3)N=C2c2ccc(-c3ccc(Cl)cc3F)cc2F)C1` [compound 537, 5-(4′-Chloro-2′,3-difluorobiphenyl-4-yl)-6-{[1-(cyclopropylcarbonyl)azetidin-3-yl]methyl}-4,6-diazaspiro[2.4]hept-4-en-7-one], the inhibition at 10 µM in assay [1] was 99%. Further, the IC50 in assay [1] was 174 nM; in the assay with A2780 ovarian cells [2] it was > 10000 nM; in the assay with A2780 ovarian cells [3], 263 nM; in assay [4], 1320 nM; in assay [5], 617 nM; in assay [6], 427 nM.

Regarding `Cn1ccc2ccc(-c3ccc(C4=NC5(CC5)C(=O)N4CC4CN(C(=O)C5CC5)C4)cc3)cc21` [compound 541, 6-{[1-(Cyclopropylcarbonyl)azetidin-3-yl]methyl}-5-[4-(1-methyl-1H-indol-6-yl)phenyl]-4,6-diazaspiro[2.4]hept-4-en-7-one], the inhibition at 10 µM in assay [1] was determined as 100%. Further, the IC50 in assay [1] is 110 nM; in the assay with A2780 ovarian cells [2] it was > 10000 nM; with A2780 ovarian cells [3], 282 nM; in assay [4], ~1020 nM; in assay [5], 309 nM; in assay [6] it was 339 nM.

With `Cn1ccc(-c2ccc(-c3ccc(C4=NC5(CC5)C(=O)N4CC4CN(C(=O)C5CC5)C4)cc3)cc2)n1` [compound 542, 6-{[1-(Cyclopropylcarbonyl)azetidin-3-yl]methyl}-5-[4′-(1-methyl-1H-pyrazol-3-yl)biphenyl-4-yl]-4,6-diazaspiro[2.4]hept-4-en-7-one], the inhibition at 10 µM in assay [1] came out at 89%. Moreover, the IC50 in assay [1] was 692 nM; in the assay with A2780 ovarian cells [2], > 10000 nM; in the assay on A2780 ovarian cells [3], 832 nM; in assay [4], 3020 nM; in assay [5], 4470 nM; in assay [6], 1620 nM.

For the compound `CC(C)Cn1cc(-c2ccc(-c3ccc(C4=NC5(CC5)C(=O)N4CC4CN(C(=O)C5CC5)C4)cc3)cc2)cn1` [compound 544, 6-{[1-(Cyclopropylcarbonyl)azetidin-3-yl]methyl}-5-{4′-[1-(2-methylpropyl)-1H-pyrazol-4-yl]biphenyl-4-yl}-4,6-diazaspiro[2.4]hept-4-en-7-one], the inhibition at 10 µM in assay [1] came out at 98%. For the same compound, the IC50 in assay [1] is 204 nM; in the assay with A2780 ovarian cells [2], 1620 nM; in the assay with A2780 ovarian cells [3] it was 52.5 nM; in assay [4], 776 nM; in assay [5], 141 nM; in assay [6], 724 nM.

`Cc1cc(-c2ccc3c(cnn3C)c2)ccc1C1=NC2(CC2)C(=O)N1CC1CN(C(=O)C2CCO2)C1` (stereo not drawn) [compound 545, 5-[2-Methyl-4-(1-methyl-1H-indazol-5-yl)phenyl]-6-{[1-(oxetan-2-ylcarbonyl)azetidin-3-yl]methyl}-4,6-diazaspiro[2.4]hept-4-en-7-one]: the inhibition at 10 µM in assay [1] was 101%. Also, the IC50 in assay [1] was 110 nM; in the assay with A2780 ovarian cells [2] it was > 10000 nM; in the assay with A2780 ovarian cells [3], 91.2 nM; in assay [4], 269 nM; in assay [5] it was 126 nM; in assay [6], 257 nM.

Consider `Cc1ccnc2cc(-c3ccc(C4=NC5(CC5)C(=O)N4CC4CN(C(=O)C5CC5)C4)cc3)ccc12` [compound 554, 6-{[1-(Cyclopropylcarbonyl)azetidin-3-yl]methyl}-5-[4-(4-methylquinolin-7-yl)phenyl]-4,6-diazaspiro[2.4]hept-4-en-7-one], for which, in assay [1], the inhibition at 10 µM worked out at 97%. In addition, the IC50 in assay [1] was 129 nM; with A2780 ovarian cells [2], 7760 nM; in the assay on A2780 ovarian cells [3] it was ~145 nM; in assay [4], 646 nM; in assay [5], ~174 nM; in assay [6], 269 nM.

`Cc1nc2ccc(-c3ccc(C4=NC5(CC5)C(=O)N4CC4CN(C(=O)C5CC5)C4)c(F)c3)cc2s1` [compound 558, 6-{[1-(Cyclopropylcarbonyl)azetidin-3-yl]methyl}-5-[2-fluoro-4-(2-methyl-1,3-benzothiazol-6-yl)phenyl]-4,6-diazaspiro[2.4]hept-4-en-7-one]: in assay [1], the inhibition at 10 µM was 96%. Further, the IC50 is 186 nM in assay [1]; 6310 nM in the assay with A2780 ovarian cells [2]; ~562 nM in the assay with A2780 ovarian cells [3]; 2510 nM in assay [4]; 724 nM in assay [5]; 708 nM in assay [6].

For the compound `Cc1nc2cc(-c3ccc(C4=NC5(CC5)C(=O)N4CC4CN(C(=O)C5CC5)C4)cc3)ccc2s1` [compound 562, 6-{[1-(Cyclopropylcarbonyl)azetidin-3-yl]methyl}-5-[4-(2-methyl-1,3-benzothiazol-5-yl)phenyl]-4,6-diazaspiro[2.4]hept-4-en-7-one], the inhibition at 10 µM in assay [1] worked out at 97%. The IC50 is 245 nM in assay [1]; > 10000 nM in the assay with A2780 ovarian cells [2]; 955 nM in the assay with A2780 ovarian cells [3]; 3090 nM in assay [4]; 1620 nM in assay [5]; 1380 nM in assay [6].

The term inhibition denotes the drop in the measured response relative to a control, in per cent.
